Results from BindingDB's records for doi:10.1021/jm0105833 (Harvard University, 2002).
Numbered stars: 1 amine (or outer) side, 2 acyl side, 3 side chain; on linkers, the order of the positions; unused ones are H or OH. Square brackets hold non-standard residues; d marks the D form. Peptide text beside a SMILES is read from it. Phe(ψ(S)CH(OH)CH2N)Pro = O=C([C@@H]1CCCN1C[C@H](O)[C@H](Cc1ccccc1)N[*:1])[*:2]; Nle = CCCC[C@H](N)C(=O)O; Orn = NCCC[C@H](N)C(=O)O

molecular target: T1, Mast cell carboxypeptidase A (Homo sapiens, UniProt P15088); assay: Binding affinity against Carboxypeptidase A
T1 sequence (P15088 whole entry): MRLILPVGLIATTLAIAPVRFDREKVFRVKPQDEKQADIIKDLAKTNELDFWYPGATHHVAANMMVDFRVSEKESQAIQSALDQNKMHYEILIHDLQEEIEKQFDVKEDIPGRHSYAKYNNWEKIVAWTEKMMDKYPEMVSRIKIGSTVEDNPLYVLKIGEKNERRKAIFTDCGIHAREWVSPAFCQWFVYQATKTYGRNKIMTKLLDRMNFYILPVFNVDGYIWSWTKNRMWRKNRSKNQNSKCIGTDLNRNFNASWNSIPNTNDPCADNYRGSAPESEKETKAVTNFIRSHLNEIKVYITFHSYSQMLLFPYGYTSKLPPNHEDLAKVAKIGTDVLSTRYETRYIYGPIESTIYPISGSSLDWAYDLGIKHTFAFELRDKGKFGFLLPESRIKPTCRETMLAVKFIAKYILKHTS

Row | Kd | SMILES
1 | 129 µM | NCCCC[C@H](NC(=O)CN)C(=O)O [(S)-6-Amino-2-(2-amino-acetylamino)-hexanoic acid] (H-Gly-Lys-OH)

molecular target: Human immunodeficiency virus type 1 protease (Human immunodeficiency virus 1, UniProt Q72874); assay: Affinity for HIV Protease

Row | Kd | SMILES
2 | 204 pM | CC1(C)SC(C(NC(=O)Cc2ccccc2)C(=O)NCc2ccccc2)NC1C(=O)NC(Cc1ccccc1)C(O)CC(=O)NCC1=NC2C=CC=CC2=N1 (stereo unspecified) [GR-137615]
3 | 34.7 pM | CC(C)[C@H](NC(=O)N(C)Cc1ccccn1)C(=O)N[C@@H](Cc1ccccc1)C[C@@H](O)[C@H](Cc1ccccc1)NC(=O)[C@@H](NC(=O)N(C)Cc1ccccn1)C(C)C [(2S)-N-[(2S,3R,5S)-3-hydroxy-5-[(2S)-3-methyl-2-{[methyl(pyridin-2-ylmethyl)carbamoyl]amino}butanamido]-1,6-diphenylhexan-2-yl]-3-methyl-2-{[methyl(pyridin-2-ylmethyl)carbamoyl]amino}butanamide]
4 | 776000 pM | CCCC[C@H](NC(=O)[C@H](CCCC)NC(=O)[C@@H](NC(=O)[C@@H](NC(C)=O)[C@@H](C)O)[C@@H](C)CC)C(=O)N[C@@H](CCCN)C(=O)N[C@@H](CCCN=C(N)N)C(N)=O (Ac-TI[Nle][Nle][Orn]R-NH2)
5 | 7900 pM | CC1(C)S[C@H]([C@H](NC(=O)Cc2ccccc2)C(=O)NCc2ccccc2)N[C@H]1C(=O)N[C@@H](CO)Cc1ccccc1 [GR-126045]
6 | 977 pM | CC(C)[C@H](NC(=O)N(C)Cc1ccccn1)C(=O)N[C@@H](Cc1ccccc1)[C@@H](O)[C@H](O)[C@H](Cc1ccccc1)NC(=O)[C@@H](NC(=O)N(C)Cc1ccccn1)C(C)C [(2S)-N-[(2S,3R,4R,5S)-3,4-dihydroxy-5-[(2S)-3-methyl-2-{[methyl(pyridin-2-ylmethyl)carbamoyl]amino}butanamido]-1,6-diphenylhexan-2-yl]-3-methyl-2-{[methyl(pyridin-2-ylmethyl)carbamoyl]amino}butanamide]

The remaining lines, values behind:

Row | SMILES | Kd
7 | COC(=O)[C@@H](NC(=O)[C@@H](NC(=O)[C@H](C)N1CCC([C@H](C)NC(=O)[C@H](C)N)=C[C@@H](Cc2ccccc2)C1)C(C)C)C(C)C [SB-203238] | 427000 pM
8 | CC[C@H](C)[C@H](NC(=O)[C@@H]1CCCN1C[C@H](O)[C@H](Cc1ccccc1)NC(=O)[C@H](CC(N)=O)NC(=O)[C@H](CC(C)C)NC(=O)[C@H](CO)NC(C)=O)C(=O)N[C@H](C(=O)OC)C(C)C (Ac-SLN[Phe(ψ(S)CH(OH)CH2N)Pro]IV-OMe) | 234 pM
9 | C=CO [E1203] | 3900 pM
10 | CC(C)[C@H](NC(=O)N(C)Cc1ccccn1)C(=O)N[C@@H](Cc1ccccc1)[C@H](O)[C@H](O)[C@H](Cc1ccccc1)NC(=O)[C@@H](NC(=O)N(C)Cc1ccccn1)C(C)C [(2S)-N-[(2S,3R,4S,5S)-3,4-dihydroxy-5-[(2S)-3-methyl-2-{[methyl(pyridin-2-ylmethyl)carbamoyl]amino}butanamido]-1,6-diphenylhexan-2-yl]-3-methyl-2-{[methyl(pyridin-2-ylmethyl)carbamoyl]amino}butanamide] | 83.2 pM
11 | CC(C)CN(C[C@@H](O)[C@H](Cc1ccccc1)NC(=O)O[C@H]1CCOC1)S(=O)(=O)c1ccc(N)cc1 [VX-478] | 589 pM
12 | O=C1N(Cc2ccc3ccccc3c2)[C@H](Cc2ccccc2)[C@H](O)[C@@H](O)[C@@H](Cc2ccccc2)N1Cc1ccc2ccccc2c1 | 302 pM
13 | O=C(N[C@H]1c2ccccc2C[C@H]1O)[C@H](Cc1ccccc1)CC(O)C[C@@H](Cc1ccccc1)C(=O)N[C@H]1c2ccccc2C[C@H]1O [L-700417] | 708 pM
14 | CC(C)[C@H](NC(=O)N(C)Cc1ccccn1)C(=O)N[C@@H](Cc1ccccc1)[C@H](O)[C@@H](O)[C@H](Cc1ccccc1)NC(=O)[C@@H](NC(=O)N(C)Cc1ccccn1)C(C)C [JMC51852 Inhibitor PP] | 75.9 pM

molecular target: T2, Thermolysin (Bacillus thermoproteolyticus, UniProt P00800); assay: Binding affinity against Thermolysin
T2 sequence (P00800 whole entry): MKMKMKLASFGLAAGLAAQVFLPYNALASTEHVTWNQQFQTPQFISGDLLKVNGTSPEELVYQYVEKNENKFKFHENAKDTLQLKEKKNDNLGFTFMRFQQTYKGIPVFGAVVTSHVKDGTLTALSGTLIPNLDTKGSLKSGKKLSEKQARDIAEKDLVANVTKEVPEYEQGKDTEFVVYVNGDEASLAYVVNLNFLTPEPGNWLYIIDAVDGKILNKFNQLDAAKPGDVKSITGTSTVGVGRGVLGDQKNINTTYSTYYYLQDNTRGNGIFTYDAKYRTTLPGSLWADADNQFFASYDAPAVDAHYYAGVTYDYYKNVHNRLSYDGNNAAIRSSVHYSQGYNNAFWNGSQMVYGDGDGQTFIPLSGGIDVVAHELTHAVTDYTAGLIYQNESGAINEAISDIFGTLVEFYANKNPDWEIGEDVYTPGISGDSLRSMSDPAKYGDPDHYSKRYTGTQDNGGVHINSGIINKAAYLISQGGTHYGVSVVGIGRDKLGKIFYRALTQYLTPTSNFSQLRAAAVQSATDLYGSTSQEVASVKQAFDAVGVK

Row | SMILES | Kd
15 | O=[N+]([O-])Nc1ccccc1 [Nitroanilide] | 0.427 µM
16 | CC(C)C[C@H](NC(CCc1ccccc1)C(=O)O)C(=O)N[C@@H](Cc1c[nH]c2ccccc12)C(=O)O (stereo partly specified) | 0.074 µM
17 | CC(C)[C@H](N)C(=O)N[C@@H](Cc1c[nH]c2ccccc12)C(=O)O [Val-Trp] (H-Val-Trp-OH) | 1.23 µM
18 | CC(C)C[C@H](NP(=O)(O)O)C(N)=O [(P-Leu-NH2) (1-Carbamoyl-3-methyl-butyl)-phosphoramidic acid] | 1.29 µM
19 | CC(C)C[C@H](N)C(=O)NO [(S)-2-Amino-4-methyl-pentanoic acid hydroxyamide] | 191 µM
20 | CC(C)C[C@H](NP(=O)(O)O[C@@H]1O[C@@H](C)[C@H](O)[C@@H](O)[C@H]1O)C(=O)N[C@@H](Cc1c[nH]c2ccccc12)C(=O)O [(S)-2-{(R)-2-[Hydroxy-((2R,3R,4R,5R,6S)-3,4,5-trihydroxy-6-methyl-tetrahydro-pyran-2-yloxy)-phosphorylamino]-4-methyl-pentanoylamino}-3-(1H-indol-3-yl)-propionic acid] | 0.028 µM

molecular target: Purine nucleoside phosphorylase (Homo sapiens) (UniProt P00491); assay: Binding affinity against Purine Nucleoside Phosphorylase
Sequence (P00491 whole entry, looked up): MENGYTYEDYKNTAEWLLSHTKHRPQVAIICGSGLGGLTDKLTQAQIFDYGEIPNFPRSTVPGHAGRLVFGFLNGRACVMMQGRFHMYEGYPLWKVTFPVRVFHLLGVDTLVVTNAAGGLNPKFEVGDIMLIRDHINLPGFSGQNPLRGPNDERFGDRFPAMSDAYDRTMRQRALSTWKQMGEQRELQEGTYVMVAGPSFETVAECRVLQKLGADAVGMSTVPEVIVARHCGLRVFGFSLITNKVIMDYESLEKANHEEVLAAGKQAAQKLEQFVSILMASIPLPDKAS

Row | Kd | SMILES
21 | 1.1 µM | O=P(O)(O)OP(=O)(O)OP(=O)(O)OP(=O)(O)OP(=O)(O)OC[C@H]1O[C@@H](n2cnc3cncnc32)[C@H](O)[C@@H]1O
22 | 1.41 µM | O=P(O)(O)OP(=O)(O)OP(=O)(O)OP(=O)(O)OC[C@H]1O[C@@H](n2cnc3cncnc32)[C@H](O)[C@@H]1O
23 | 0.603 µM | O=P(O)(O)OP(=O)(O)OC[C@H]1O[C@@H](n2cnc3cncnc32)[C@H](O)[C@@H]1O

molecular target: Prothrombin (Homo sapiens, UniProt P00734); assay: Binding affinity against thrombin

Row | Kd | SMILES
24 | 0.575 µM | N=C(N)NCCC[C@H](NC(=O)[C@@H]1CCCN1C(=O)[C@@H](N)Cc1ccccc1)C(=O)O [5-amino(imino)methylamino-2-[1-[2-amino-3-phenyl-(2S)-propanoyl]-(5S)-dihydro-1H-5-pyrrolylcarboxamido]-(2S)-pentanoic acid]

molecular target: Serine protease 1 (Homo sapiens, UniProt P07477); assay: Binding affinity against trypsin
Sequence (P07477 whole entry): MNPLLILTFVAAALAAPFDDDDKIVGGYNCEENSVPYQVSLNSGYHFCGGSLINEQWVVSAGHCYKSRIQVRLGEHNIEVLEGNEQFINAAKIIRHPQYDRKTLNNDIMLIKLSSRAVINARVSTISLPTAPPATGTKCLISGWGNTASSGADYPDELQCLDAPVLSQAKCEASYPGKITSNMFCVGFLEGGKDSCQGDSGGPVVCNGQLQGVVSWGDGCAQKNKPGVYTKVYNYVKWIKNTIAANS

Row | Kd | SMILES
25 | 20000 µM | NCCCCc1ccccc1 [4-Phenyl-butylamine]

molecular target: T3, Fatty acid-binding protein, intestinal (Homo sapiens, UniProt P12104); assay: Binding affinity against Fatty acid-binding protein
T3 sequence (P12104 whole entry): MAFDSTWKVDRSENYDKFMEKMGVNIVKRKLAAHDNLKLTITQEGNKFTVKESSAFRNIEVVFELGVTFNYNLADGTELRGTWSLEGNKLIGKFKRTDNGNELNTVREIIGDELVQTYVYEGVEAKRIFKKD

Row | Kd | SMILES
26 | 3.72 µM | CCCCCCCCCCCCCCCC(=O)O
